Drawing on ChEMBL document CHEMBL4823324, “Discovery of BMS-986318, a Potent Nonbile Acid FXR Agonist for the Treatment of Nonalcoholic Steatohepatitis” (ACS Med Chem Lett, 2021), this text covers EC50 and Vd for one compound.

A value given as a limit tells only on which side of the number the result lay.

Data set [1] addresses T1, Progesterone receptor (Homo sapiens, UniProt P06401).
T1 sequence (P06401 whole entry): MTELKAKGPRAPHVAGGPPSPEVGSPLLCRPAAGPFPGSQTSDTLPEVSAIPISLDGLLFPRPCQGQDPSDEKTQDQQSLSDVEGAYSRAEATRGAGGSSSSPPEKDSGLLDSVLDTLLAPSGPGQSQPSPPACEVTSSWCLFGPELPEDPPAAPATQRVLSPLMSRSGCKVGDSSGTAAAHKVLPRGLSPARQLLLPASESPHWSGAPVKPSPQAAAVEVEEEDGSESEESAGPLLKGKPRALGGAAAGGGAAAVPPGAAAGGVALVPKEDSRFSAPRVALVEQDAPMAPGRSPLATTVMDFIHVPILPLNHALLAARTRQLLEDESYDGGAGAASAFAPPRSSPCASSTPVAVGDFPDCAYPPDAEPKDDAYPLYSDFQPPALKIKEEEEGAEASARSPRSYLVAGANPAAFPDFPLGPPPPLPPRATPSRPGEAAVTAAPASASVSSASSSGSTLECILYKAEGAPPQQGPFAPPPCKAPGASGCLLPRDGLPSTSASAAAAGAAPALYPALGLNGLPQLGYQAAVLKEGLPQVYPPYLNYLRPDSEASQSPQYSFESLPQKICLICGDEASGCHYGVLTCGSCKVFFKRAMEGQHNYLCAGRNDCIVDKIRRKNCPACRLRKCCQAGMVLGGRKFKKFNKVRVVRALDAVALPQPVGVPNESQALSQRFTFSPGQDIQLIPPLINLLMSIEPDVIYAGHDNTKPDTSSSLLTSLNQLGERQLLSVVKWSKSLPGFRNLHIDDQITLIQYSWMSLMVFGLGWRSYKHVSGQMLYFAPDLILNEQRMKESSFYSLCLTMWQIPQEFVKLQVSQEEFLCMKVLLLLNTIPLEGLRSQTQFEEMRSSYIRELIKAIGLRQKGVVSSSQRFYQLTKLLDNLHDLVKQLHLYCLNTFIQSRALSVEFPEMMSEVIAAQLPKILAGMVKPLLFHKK
The data set is described as follows: Activation of progesterone receptor (unknown origin) by fluorescence polarization based competition assay. (Fluorescence polarisation rises when a labelled molecule tumbles more slowly, as on binding a larger partner.)

A short description of data set [2]: Volume of distribution at steady state in C57B6 mouse at 1 mg/kg, iv. In kind it is ADME, organism-based. Conditions: in vivo, read-out: Vdss.

Turning to `O=C(O)c1cc(C(F)(F)F)c2cc(N3CCC4(C=C(c5c(-c6c(Cl)cncc6Cl)noc5C5CC5)C4)CC3)ccc2n1`, the EC50 (as a rule, the concentration that produces a half-maximal response) in data set [1] is more than 40 µM. Further, the Vd in data set [2] is 0.56 L/kg.
